Data published in ChEMBL document CHEMBL4261494, “Design, synthesis and biological evaluation of novel Schiff base-bridged tetrahydroprotoberberine triazoles as a new type of potential antimicrobial agents” (Medchemcomm, 2017).
≈ marks a conversion by molar mass, not a printed value. Calls of active or inactive are those of the source. The calls are words filed in the database; no cut-off is given here.

Experiments:
Shigella dysenteriae = format: functional; details: 24 h
Escherichia coli [1] = format: functional; details: DH52, 24 h
[2] = Aqueous solubility of the compound in pH 7.4 phosphate buffer at 1 mg after 3 hrs by UV absorption analysis; format: physicochemical
Salmonella typhi = assay: microbe, parasite or virus in culture; details: Salmonella enterica, 24 h
Staphylococcus aureus [3] = format: functional; details: ATCC 25923, 24 h
Staphylococcus aureus [4] = format: functional; details: N315, 24 h
Escherichia coli [5] = format: functional; details: JM109, 24 h
Cyberlindnera jadinii = format: functional; details: for MIC: Williopsis jadinii, ATCC 9950, 24 h
Micrococcus luteus = format: functional; details: ATCC 4698, 24 h
Proteus vulgaris = format: functional; details: ATCC 13315, 24 h
Bacillus spizizenii = format: functional; details: ATCC 6633, 24 h
Pseudomonas aeruginosa = format: functional; details: ATCC 27853, 24 h
Staphylococcus aureus [6] = assay: Antibacterial activity against methicillin-resistant Staphylococcus aureus N315 after 5 passages; format: functional, organism-based
Candida albicans = format: functional
Kregervanrija fluxuum = format: functional
Saccharomyces cerevisiae = format: functional; details: 24 h
Aspergillus flavus = format: functional
Staphylococcus aureus [7] = assay: Potency index, ratio of norfloxacin MIC to test compound MIC for methicillin-resistant Staphylococcus aureus N315; format: functional
Calf thymus DNA [8] = assay: Binding affinity to calf thymus DNA assessed as increase in hypochromic effect up to 2 x 10^-5 mol/L by UV absorption spectral analysis; format: nucleic-acid assay; details: Bos taurus
Staphylococcus aureus [9] = assay: Potency index, ratio of chloromycin MIC to test compound MIC for methicillin-resistant Staphylococcus aureus N315; format: functional
Albumin [10] = target: T1, Albumin (Homo sapiens, UniProt P02768); assay: Binding affinity to HSA assessed as quenching constant at 310 K by UV-vis absorption spectral analysis; format: ADME; details: isolated protein
T1 sequence (P02768 whole entry): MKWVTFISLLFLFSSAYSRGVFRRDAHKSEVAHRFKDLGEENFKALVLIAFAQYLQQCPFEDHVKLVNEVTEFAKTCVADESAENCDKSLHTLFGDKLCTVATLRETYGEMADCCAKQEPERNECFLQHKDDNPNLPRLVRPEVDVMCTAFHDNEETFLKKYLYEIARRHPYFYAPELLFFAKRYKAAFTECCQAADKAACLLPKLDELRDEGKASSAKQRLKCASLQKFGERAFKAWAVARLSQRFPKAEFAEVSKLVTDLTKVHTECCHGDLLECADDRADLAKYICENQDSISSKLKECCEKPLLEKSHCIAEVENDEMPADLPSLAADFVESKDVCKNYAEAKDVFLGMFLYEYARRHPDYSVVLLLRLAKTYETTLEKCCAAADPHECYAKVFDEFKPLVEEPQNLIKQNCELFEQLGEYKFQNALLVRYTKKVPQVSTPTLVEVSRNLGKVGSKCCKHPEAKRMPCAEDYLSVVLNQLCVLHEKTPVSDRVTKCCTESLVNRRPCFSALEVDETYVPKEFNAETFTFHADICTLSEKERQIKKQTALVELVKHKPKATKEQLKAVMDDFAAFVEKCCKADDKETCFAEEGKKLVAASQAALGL

Albumin [11] = target: T1, Albumin; assay: Binding affinity to HSA assessed as quenching constant at 288 K by UV-vis absorption spectral analysis; format: ADME; details: isolated protein
Staphylococcus aureus [12] = assay: Bactericidal activity against methicillin-resistant Staphylococcus aureus N315 assessed as log reduction in viable bacterial count at 4 times MIC incubated up to 1 hr followed by replating on yeast-dextrose agar plates and measured after 24 hrs by time kill assay; format: functional
Staphylococcus aureus [13] = assay: Antibacterial activity against methicillin-resistant Staphylococcus aureus N315 after 14 passages; format: functional, organism-based
DNA [14] = assay: Induction of Escherichia coli supercoiled pUC19 DNA cleavage at 0.0125 mM after 16 hrs in presence of Zn2+ by ethidium bromide staining-based agarose gel electrophoresis method; format: nucleic-acid assay
Albumin [15] = target: T1, Albumin; assay: Binding affinity to HSA assessed as quenching constant at 298 K by UV-vis absorption spectral analysis; format: ADME; details: isolated protein
Calf thymus DNA [16] = assay: Binding affinity to calf thymus DNA by UV absorption spectral analysis; format: nucleic-acid assay; details: Bos taurus
Calf thymus DNA [17] = assay: Inhibition of neutral red binding to calf thymus DNA up to 2 x 10^-5 mol/L by UV absorption spectral analysis; format: nucleic-acid assay; details: Bos taurus
DNA [18] = assay: Induction of Escherichia coli supercoiled pUC19 DNA cleavage at 0.0125 mM after 16 hrs in absence of Zn2+ by ethidium bromide staining-based agarose gel electrophoresis method; format: nucleic-acid assay

COc1cc(/C=N/n2cnnc2)c2c(c1OCc1ccc(Cl)cc1)CN1CCc3cc4c(cc3C1C2)OCO4 (centres undefined)
MIC (Shigella dysenteriae): 64 µg/mL (≈ 118 µM) | MIC (Escherichia coli [1]): 32 µg/mL (≈ 58.8 µM) | solubility at 3 h [2]: 613 µg/mL (≈ 1130 µM) | MIC (Salmonella typhi): 8 µg/mL (≈ 14.7 µM) | MIC (Staphylococcus aureus [3]): 8 µg/mL (≈ 14.7 µM) | MIC (Staphylococcus aureus [4]): 32 µg/mL (≈ 58.8 µM) | MIC (Escherichia coli [5]): 8 µg/mL (≈ 14.7 µM) | MIC (Cyberlindnera jadinii): 0.5 µg/mL (≈ 0.919 µM) | MIC (Micrococcus luteus): 16 µg/mL (≈ 29.4 µM) | MIC (Proteus vulgaris): 8 µg/mL (≈ 14.7 µM) | MIC (Bacillus spizizenii): 16 µg/mL (≈ 29.4 µM) | MIC (Pseudomonas aeruginosa): 4 µg/mL (≈ 7.35 µM)

CCn1cc(C(=O)O)c(=O)c2cc(F)c(N3CCNCC3)cc21 [NORFLOXACIN]
MIC (Shigella dysenteriae): 4 µg/mL (≈ 12.5 µM) | MIC (Escherichia coli [1]): 1 µg/mL (≈ 3.13 µM) | MIC (Salmonella typhi): 4 µg/mL (≈ 12.5 µM) | MIC (Staphylococcus aureus [3]): 0.5 µg/mL (≈ 1.57 µM) | MIC (Staphylococcus aureus [4]): 8 µg/mL (≈ 25.1 µM) | MIC (Escherichia coli [5]): 1 µg/mL (≈ 3.13 µM) | MIC (Micrococcus luteus): 4 µg/mL (≈ 12.5 µM) | MIC (Proteus vulgaris): 8 µg/mL (≈ 25.1 µM) | Activity (Staphylococcus aureus [6]): inactive | MIC (Bacillus spizizenii): 4 µg/mL (≈ 12.5 µM) | MIC (Pseudomonas aeruginosa): 16 µg/mL (≈ 50.1 µM)

COc1cc(C=O)c2c(c1O)CN1CCc3cc4c(cc3C1C2)OCO4 (centres undefined)
Activity (Candida albicans; ATCC 10231): inactive | Activity (Kregervanrija fluxuum; ATCC 9888): inactive | MIC (Shigella dysenteriae): 512 µg/mL (≈ 1450 µM) | MIC (Escherichia coli [1]): 256 µg/mL (≈ 724 µM) | solubility at 3 h [2]: 79 µg/mL (≈ 224 µM) | MIC (Salmonella typhi): 2 µg/mL (≈ 5.66 µM) | MIC (Staphylococcus aureus [3]): 128 µg/mL (≈ 362 µM) | MIC (Staphylococcus aureus [4]): 256 µg/mL (≈ 724 µM) | MIC (Escherichia coli [5]): 256 µg/mL (≈ 724 µM) | Activity (Cyberlindnera jadinii; ATCC 9950): inactive | MIC (Micrococcus luteus): 2 µg/mL (≈ 5.66 µM) | MIC (Saccharomyces cerevisiae): 1 µg/mL (≈ 2.83 µM) | MIC (Proteus vulgaris): 64 µg/mL (≈ 181 µM) | MIC (Bacillus spizizenii): 32 µg/mL (≈ 90.6 µM) | Activity (Aspergillus flavus; ATCC 204304): inactive | MIC (Pseudomonas aeruginosa): 16 µg/mL (≈ 45.3 µM)

CCCCCCCCOc1c(OC)cc(/C=N/n2cnnc2)c2c1CN1CCc3cc4c(cc3C1C2)OCO4 (centres undefined)
MIC (Shigella dysenteriae): 64 µg/mL (≈ 120 µM) | MIC (Escherichia coli [1]): 16 µg/mL (≈ 30.1 µM) | MIC (Salmonella typhi): 16 µg/mL (≈ 30.1 µM) | MIC (Staphylococcus aureus [3]): 8 µg/mL (≈ 15 µM) | MIC (Staphylococcus aureus [4]): 16 µg/mL (≈ 30.1 µM) | MIC (Escherichia coli [5]): 32 µg/mL (≈ 60.2 µM) | MIC (Micrococcus luteus): 16 µg/mL (≈ 30.1 µM) | MIC (Proteus vulgaris): 16 µg/mL (≈ 30.1 µM) | MIC (Bacillus spizizenii): 16 µg/mL (≈ 30.1 µM) | MIC (Pseudomonas aeruginosa): 512 µg/mL (≈ 963 µM)

CCOc1c(OC)cc(/C=N/n2cnnc2)c2c1CN1CCc3cc4c(cc3C1C2)OCO4 (centres undefined)
MIC (Shigella dysenteriae): 512 µg/mL (≈ 1140 µM) | MIC (Escherichia coli [1]): 512 µg/mL (≈ 1140 µM) | MIC (Salmonella typhi): 256 µg/mL (≈ 572 µM) | MIC (Staphylococcus aureus [3]): 256 µg/mL (≈ 572 µM) | MIC (Staphylococcus aureus [4]): 8 µg/mL (≈ 17.9 µM) | MIC (Escherichia coli [5]): 256 µg/mL (≈ 572 µM) | MIC (Micrococcus luteus): 16 µg/mL (≈ 35.8 µM) | MIC (Proteus vulgaris): 32 µg/mL (≈ 71.5 µM) | MIC (Bacillus spizizenii): 128 µg/mL (≈ 286 µM) | MIC (Pseudomonas aeruginosa): 256 µg/mL (≈ 572 µM)

COc1cc(/C=N/n2cnnc2)c2c(c1OCc1ccc(F)cc1)CN1CCc3cc4c(cc3C1C2)OCO4 (centres undefined)
MIC (Shigella dysenteriae): 16 µg/mL (≈ 30.3 µM) | MIC (Escherichia coli [1]): 16 µg/mL (≈ 30.3 µM) | solubility at 3 h [2]: 185 µg/mL (≈ 351 µM) | MIC (Salmonella typhi): 4 µg/mL (≈ 7.58 µM) | MIC (Staphylococcus aureus [3]): 32 µg/mL (≈ 60.7 µM) | MIC (Staphylococcus aureus [4]): 8 µg/mL (≈ 15.2 µM) | MIC (Escherichia coli [5]): 32 µg/mL (≈ 60.7 µM) | MIC (Micrococcus luteus): 2 µg/mL (≈ 3.79 µM) | MIC (Proteus vulgaris): 128 µg/mL (≈ 243 µM) | MIC (Bacillus spizizenii): 32 µg/mL (≈ 60.7 µM) | MIC (Pseudomonas aeruginosa): 8 µg/mL (≈ 15.2 µM)

COc1cc(/C=N/n2cnnc2)c2c(c1OCc1ccccc1)CN1CCc3cc4c(cc3C1C2)OCO4 (centres undefined)
Ratio (Staphylococcus aureus [7]): 4 | MIC (Candida albicans; ATCC 10231, 24 h): 0.5 to 32 µg/mL (≈ 0.981 to 62.8 µM) | Activity (Calf thymus DNA [8]): Active | MIC (Kregervanrija fluxuum; ATCC 9888, 24 h): 0.5 to 32 µg/mL (≈ 0.981 to 62.8 µM) | Ratio (Staphylococcus aureus [9]): 8 | MIC (Shigella dysenteriae): 32 µg/mL (≈ 62.8 µM) | MIC (Escherichia coli [1]): 16 µg/mL (≈ 31.4 µM) | Kq (Albumin [10]): 1.7 ×10¹³ L/mol/s | Kq (Albumin [11]): 2.55 ×10¹³ L/mol/s | FC (Staphylococcus aureus [12]): >3 | solubility at 3 h [2]: 178 µg/mL (≈ 349 µM) | Activity (Staphylococcus aureus [13]): Active | MIC (Salmonella typhi): 4 µg/mL (≈ 7.85 µM) | MIC (Staphylococcus aureus [3]): 8 µg/mL (≈ 15.7 µM) | MIC (Staphylococcus aureus [4]): 2 µg/mL (≈ 3.92 µM) | MIC (Escherichia coli [5]): 32 µg/mL (≈ 62.8 µM) | MIC (Cyberlindnera jadinii): 0.5 to 32 µg/mL (≈ 0.981 to 62.8 µM) | MIC (Micrococcus luteus): 1 µg/mL (≈ 1.96 µM) | MIC (Saccharomyces cerevisiae): 0.5 µg/mL (≈ 0.981 µM) | MIC (Proteus vulgaris): 16 µg/mL (≈ 31.4 µM) | Activity (DNA [14]): Active | Kq (Albumin [15]): 2.05 ×10¹³ L/mol/s | MIC (Bacillus spizizenii): 32 µg/mL (≈ 62.8 µM) | MIC (Aspergillus flavus; ATCC 204304, 24 h): 0.5 to 32 µg/mL (≈ 0.981 to 62.8 µM) | K (Calf thymus DNA [16]): 2.27 ×10⁴ L/mol | inhibition (Calf thymus DNA [17]): Active | Activity (DNA [18]): inactive | MIC (Pseudomonas aeruginosa): 8 µg/mL (≈ 15.7 µM)

CCCCCCCCCCCCOc1c(OC)cc(/C=N/n2cnnc2)c2c1CN1CCc3cc4c(cc3C1C2)OCO4 (centres undefined)
MIC (Shigella dysenteriae): 512 µg/mL (≈ 871 µM) | MIC (Escherichia coli [1]): 256 µg/mL (≈ 436 µM) | solubility at 3 h [2]: 97 µg/mL (≈ 165 µM) | MIC (Salmonella typhi): 256 µg/mL (≈ 436 µM) | MIC (Staphylococcus aureus [3]): 256 µg/mL (≈ 436 µM) | MIC (Staphylococcus aureus [4]): 512 µg/mL (≈ 871 µM) | MIC (Escherichia coli [5]): 512 µg/mL (≈ 871 µM) | MIC (Micrococcus luteus): 512 µg/mL (≈ 871 µM) | MIC (Proteus vulgaris): 256 µg/mL (≈ 436 µM) | MIC (Bacillus spizizenii): 256 µg/mL (≈ 436 µM) | MIC (Pseudomonas aeruginosa): 512 µg/mL (≈ 871 µM)

CCCCCCCCCCOc1c(OC)cc(/C=N/n2cnnc2)c2c1CN1CCc3cc4c(cc3C1C2)OCO4 (centres undefined)
MIC (Shigella dysenteriae): 128 µg/mL (≈ 229 µM) | MIC (Escherichia coli [1]): 64 µg/mL (≈ 114 µM) | MIC (Salmonella typhi): 16 µg/mL (≈ 28.6 µM) | MIC (Staphylococcus aureus [3]): 32 µg/mL (≈ 57.2 µM) | MIC (Staphylococcus aureus [4]): 32 µg/mL (≈ 57.2 µM) | MIC (Escherichia coli [5]): 128 µg/mL (≈ 229 µM) | MIC (Micrococcus luteus): 64 µg/mL (≈ 114 µM) | MIC (Proteus vulgaris): 64 µg/mL (≈ 114 µM) | MIC (Bacillus spizizenii): 32 µg/mL (≈ 57.2 µM) | MIC (Pseudomonas aeruginosa): 128 µg/mL (≈ 229 µM)
